Activity calls are given as the source filed them. The rule behind the calls is not given here.

In PubChem BioAssay AID1259407 (Chemical Carcinogenesis Research Information System (CCRIS), 2018) one finds mutagenic call data, which are given here for six molecules.

The subject of the series is CCRIS mutagenicity, Ames/micronucleus/aberration tests. Kind of series: CCRIS mutagenicity studies.
[1] abbreviates: Test System: AMES SALMONELLA TYPHIMURIUM, Strain/Indicator: TA98, Metabolic Activation: NONE, Method: PREINCUBATION
Where [2] appears, read: Test System: AMES SALMONELLA TYPHIMURIUM, Strain/Indicator: TA98, Metabolic Activation: NONE, Method: STANDARD PLATE.
The mark [3] stands for this setting: Test System: AMES SALMONELLA TYPHIMURIUM, Strain/Indicator: TA98, Metabolic Activation: RAT, LIVER, S-9, AROCLOR 1254, Method: STANDARD PLATE.
Where [4] appears, read: Test System: AMES SALMONELLA TYPHIMURIUM, Strain/Indicator: TA100, Metabolic Activation: NONE, Method: STANDARD PLATE.
Where [5] appears, read: Test System: AMES SALMONELLA TYPHIMURIUM, Strain/Indicator: TA100, Metabolic Activation: RAT, LIVER, S-9, AROCLOR 1254, Method: STANDARD PLATE.
[6] abbreviates: Test System: AMES SALMONELLA TYPHIMURIUM, Strain/Indicator: TA102, Metabolic Activation: NONE, Method: STANDARD PLATE.
The mark [7] stands for this setting: Test System: AMES SALMONELLA TYPHIMURIUM, Strain/Indicator: TA1537, Metabolic Activation: NONE, Method: STANDARD PLATE.
[8] abbreviates: Test System: AMES SALMONELLA TYPHIMURIUM, Strain/Indicator: TA1535, Metabolic Activation: NONE, Method: STANDARD PLATE.

Consider `CN1CCCC1=O`, for which the mutagenic call is “inactive; negative” (Test System: AMES SALMONELLA TYPHIMURIUM, Strain/Indicator: TA97, Metabolic Activation: NONE, Method: STANDARD PLATE); “inactive; negative” (Test System: AMES SALMONELLA TYPHIMURIUM, Strain/Indicator: TA97, Metabolic Activation: RAT, LIVER, S-9, AROCLOR 1254, Method: STANDARD PLATE); “inactive; negative” under setting [1]; “inactive; negative” under setting [2]; “inactive; negative” (Test System: AMES SALMONELLA TYPHIMURIUM, Strain/Indicator: TA98, Metabolic Activation: RAT, LIVER, S-9, AROCLOR 1254, Method: PREINCUBATION); “inactive; negative” under setting [3]. Also, the mutagenic call is “inactive; negative” under setting [4]; “inactive; negative” under setting [5]; “inactive; negative” under setting [6]; “inactive; negative” (Test System: AMES SALMONELLA TYPHIMURIUM, Strain/Indicator: TA102, Metabolic Activation: RAT, LIVER, S-9, AROCLOR 1254, Method: STANDARD PLATE); “inactive; negative” (Test System: AMES SALMONELLA TYPHIMURIUM, Strain/Indicator: TA104, Metabolic Activation: NONE, Method: PREINCUBATION); “inactive; negative” (Test System: AMES SALMONELLA TYPHIMURIUM, Strain/Indicator: TA104, Metabolic Activation: NONE, Method: STANDARD PLATE). The mutagenic call is “inactive; negative” (Test System: AMES SALMONELLA TYPHIMURIUM, Strain/Indicator: TA104, Metabolic Activation: RAT, LIVER, S-9, AROCLOR 1254, Method: PREINCUBATION); “inactive; negative” (Test System: AMES SALMONELLA TYPHIMURIUM, Strain/Indicator: TA104, Metabolic Activation: RAT, LIVER, S-9, AROCLOR 1254, Method: STANDARD PLATE); “inactive; negative” (Test System: AMES SALMONELLA TYPHIMURIUM, Strain/Indicator: TA2638, Metabolic Activation: NONE, Method: STANDARD PLATE); “inactive; negative” (Test System: AMES SALMONELLA TYPHIMURIUM, Strain/Indicator: TA2638, Metabolic Activation: RAT, LIVER, S-9, AROCLOR 1254, Method: STANDARD PLATE); “inactive; negative” (Test System: AMES SALMONELLA TYPHIMURIUM, Strain/Indicator: UTH8413, Metabolic Activation: NONE, Method: STANDARD PLATE); “inactive; negative” (Test System: AMES SALMONELLA TYPHIMURIUM, Strain/Indicator: UTH8413, Metabolic Activation: RAT, LIVER, S-9, AROCLOR 1254, Method: STANDARD PLATE). The mutagenic call by setting is: (Test System: AMES SALMONELLA TYPHIMURIUM, Strain/Indicator: UTH8414, Metabolic Activation: NONE, Method: STANDARD PLATE) “inactive; negative”; (Test System: AMES SALMONELLA TYPHIMURIUM, Strain/Indicator: UTH8414, Metabolic Activation: RAT, LIVER, S-9, AROCLOR 1254, Method: STANDARD PLATE) “inactive; negative”.
Turning to `Nc1ccc2cc(S(=O)(=O)O)cc(O)c2c1N=Nc1ccc([N+](=O)[O-])cc1S(=O)(=O)O`, the mutagenic call was “inactive; negative” under setting [2]; “inactive; negative” (Test System: AMES SALMONELLA TYPHIMURIUM, Strain/Indicator: TA98, Metabolic Activation: RAT, LIVER, S-9, PHENOBARBITAL, Method: STANDARD PLATE); “inactive; negative” under setting [4]; “inactive; negative” (Test System: AMES SALMONELLA TYPHIMURIUM, Strain/Indicator: TA100, Metabolic Activation: RAT, LIVER, S-9, PHENOBARBITAL, Method: STANDARD PLATE).
Turning to `Cc1c(N)nc([C@H](CC(N)=O)NC[C@H](N)C(N)=O)nc1C(=O)N[C@H](C(=O)N[C@H](C)[C@@H](O)[C@H](C)C(=O)N[C@H](C(=O)NCCc1nc(-c2nc(C(=O)NCCCN[C@@H](C)c3ccccc3)cs2)cs1)[C@@H](C)O)[C@@H](O[C@@H]1O[C@@H](CO)[C@@H](O)[C@H](O)[C@@H]1O[C@H]1O[C@H](CO)[C@@H](O)[C@H](OC(N)=O)[C@@H]1O)c1cnc[nH]1`, the mutagenic call reads like this: under setting [6], “active; positive”; under setting [7], “inactive; negative”.
On to `CCOC(=O)C[n+]1csc2ccccc21`, for which the mutagenic call was “inactive; negative” under setting [2]; “inactive; negative” under setting [4]; “inactive; negative” under setting [8]; “inactive; negative” (Test System: E.COLI, Strain/Indicator: WP2, Metabolic Activation: NONE, Method: STANDARD PLATE); “inactive; negative” (Test System: E.COLI, Strain/Indicator: WP2 UVRA, Metabolic Activation: NONE, Method: STANDARD PLATE).
On to `CCN1CCN(C(=O)N[C@@H](C(=O)N[C@@H]2C(=O)N3[C@@H]2SC(C)(C)[C@@H]3C(=O)O)c2ccccc2)C(=O)C1=O`, for which the mutagenic call (Test System: AMES SALMONELLA TYPHIMURIUM, Strain/Indicator: TA98, Metabolic Activation: MOUSE, IN VIVO, Method: HOST-MEDIATED) was “inactive; negative”; the mutagenic call under setting [1] is “inactive; negative”; the mutagenic call under setting [2] was “inactive; negative”; the mutagenic call under setting [3] is “inactive; negative”; the mutagenic call (Test System: AMES SALMONELLA TYPHIMURIUM, Strain/Indicator: TA98, Metabolic Activation: S-9, Method: PREINCUBATION) is “inactive; negative”; the mutagenic call (Test System: AMES SALMONELLA TYPHIMURIUM, Strain/Indicator: TA100, Metabolic Activation: MOUSE, IN VIVO, Method: HOST-MEDIATED) was “inactive; negative”. Also, the mutagenic call is, setting by setting: (Test System: AMES SALMONELLA TYPHIMURIUM, Strain/Indicator: TA100, Metabolic Activation: NONE, Method: PREINCUBATION) “inactive; negative”; under setting [4], “inactive; negative”; under setting [5], “inactive; negative”; (Test System: AMES SALMONELLA TYPHIMURIUM, Strain/Indicator: TA100, Metabolic Activation: S-9, Method: PREINCUBATION) “inactive; negative”; (Test System: AMES SALMONELLA TYPHIMURIUM, Strain/Indicator: TA1535, Metabolic Activation: MOUSE, IN VIVO, Method: HOST-MEDIATED) “inactive; negative”; (Test System: AMES SALMONELLA TYPHIMURIUM, Strain/Indicator: TA1535, Metabolic Activation: NONE, Method: PREINCUBATION) “inactive; negative”. Further, the mutagenic call is, setting by setting: under setting [8], “inactive; negative”; (Test System: AMES SALMONELLA TYPHIMURIUM, Strain/Indicator: TA1535, Metabolic Activation: RAT, LIVER, S-9, AROCLOR 1254, Method: STANDARD PLATE) “inactive; negative”; (Test System: AMES SALMONELLA TYPHIMURIUM, Strain/Indicator: TA1535, Metabolic Activation: S-9, Method: PREINCUBATION) “inactive; negative”; (Test System: AMES SALMONELLA TYPHIMURIUM, Strain/Indicator: TA1537, Metabolic Activation: MOUSE, IN VIVO, Method: HOST-MEDIATED) “inactive; negative”; (Test System: AMES SALMONELLA TYPHIMURIUM, Strain/Indicator: TA1537, Metabolic Activation: NONE, Method: PREINCUBATION) “inactive; negative”; under setting [7], “inactive; negative”. For the same molecule, the mutagenic call runs as follows: (Test System: AMES SALMONELLA TYPHIMURIUM, Strain/Indicator: TA1537, Metabolic Activation: RAT, LIVER, S-9, AROCLOR 1254, Method: STANDARD PLATE) “inactive; negative”; (Test System: AMES SALMONELLA TYPHIMURIUM, Strain/Indicator: TA1537, Metabolic Activation: S-9, Method: PREINCUBATION) “inactive; negative”; (Test System: AMES SALMONELLA TYPHIMURIUM, Strain/Indicator: TA1538, Metabolic Activation: NONE, Method: STANDARD PLATE) “inactive; negative”; (Test System: AMES SALMONELLA TYPHIMURIUM, Strain/Indicator: TA1538, Metabolic Activation: RAT, LIVER, S-9, AROCLOR 1254, Method: STANDARD PLATE) “inactive; negative”; (Test System: E. COLI, Strain/Indicator: WP2 UVRA, Metabolic Activation: NONE, Method: PREINCUBATION) “inactive; negative”; (Test System: E. COLI, Strain/Indicator: WP2 UVRA, Metabolic Activation: NONE, Method: STANDARD PLATE) “inactive; negative”. The mutagenic call was “inactive; negative” (Test System: E. COLI, Strain/Indicator: WP2 UVRA, Metabolic Activation: RAT, LIVER, S-9, AROCLOR 1254, Method: STANDARD PLATE) and “inactive; negative” (Test System: E. COLI, Strain/Indicator: WP2 UVRA, Metabolic Activation: S-9, Method: PREINCUBATION).
In the case of `Cc1c2ccc(CO)cc2nc2c1ccc1ccccc12`, under setting [5], the mutagenic call was “active; positive”.
